Results: patent US5387602A, “1.5-diphenyl-3-(N-hydroxycarbamoyloxyalkyl)pyrazoles” (Ortho Pharmaceutical Corporation, priority 1993, dated 1995)

Assays:
[1] = molecular target: T1, RBL-1 Cell 5-Lipoxygenase (Rattus norvegicus, UniProt P12527); assay: Procedure II: 5-lipoxygenase inhibition in disrupted RBL-1 cells (supernatant as enzyme source); assay type: biochemical; conditions: for IC50: read-out: IC50 5-LO (Procedure II)
T1 construct: the supernatant was saved as the source of enzymes; endogenous in cells; host or cells: RBL-1 (rat basophilic leukemia cells), 10,000×g supernatant of homogenate
T1 sequence (P12527 1-673): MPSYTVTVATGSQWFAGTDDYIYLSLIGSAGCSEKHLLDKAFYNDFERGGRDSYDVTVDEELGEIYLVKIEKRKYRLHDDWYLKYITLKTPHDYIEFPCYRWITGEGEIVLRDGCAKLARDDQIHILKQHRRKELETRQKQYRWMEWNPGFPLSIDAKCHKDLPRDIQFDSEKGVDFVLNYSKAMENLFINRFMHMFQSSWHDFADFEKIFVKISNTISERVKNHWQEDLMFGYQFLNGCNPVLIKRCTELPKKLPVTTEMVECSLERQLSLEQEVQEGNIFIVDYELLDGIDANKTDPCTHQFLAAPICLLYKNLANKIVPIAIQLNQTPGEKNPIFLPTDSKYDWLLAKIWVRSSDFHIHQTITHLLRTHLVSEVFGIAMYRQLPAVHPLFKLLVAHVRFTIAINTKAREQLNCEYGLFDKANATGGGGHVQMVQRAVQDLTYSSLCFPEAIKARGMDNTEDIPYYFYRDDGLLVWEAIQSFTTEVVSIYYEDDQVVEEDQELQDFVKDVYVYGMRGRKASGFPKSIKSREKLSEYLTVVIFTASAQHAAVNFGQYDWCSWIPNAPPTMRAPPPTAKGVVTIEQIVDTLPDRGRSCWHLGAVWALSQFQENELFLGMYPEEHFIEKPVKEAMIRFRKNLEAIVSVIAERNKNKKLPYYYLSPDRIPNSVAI
Protocol: (§1) RBL-1 Cell 5-Lipoxygenase and Cyclooxygenase
(§2) Rat basophilic leukemia cells (RBL-1; 5×10^7 viable cells/mL) were disrupted by homogenization on ice (four 20 sec bursts) with a Brinkman polytron. Complete cell breakage was verified microscopically. The homogenate was then centrifuged at 10,000×g for 48 minutes at 4° C. The pellet was discarded and the supernatant was saved as the source of enzymes. The supernatant was pre-incubated for five minutes at 37° C. in the presence of 2 mM of CaCl2 and compound or vehicle (1% DMSO). The conversion of AA into 5-LO products was initiated by adding 10 μL (50 μCi) of 1-^14 C-AA to each tube and incubated at 37° C. for 20 minutes. The reaction was stopped by adjusting the pH of each sample to 3 to 3.5 with 2M formic acid. Samples were extracted with three volumes of chloroform to isolate the products of 5-LO formed during the reaction. Fractions were dried under nitrogen, then resuspended in 40 μL of chloroform and spotted onto silica gel HL plates. The plates were developed in A-9 solvent. The dried plates were analyzed using a Bioscan Imaging TLC scanner to determine the percentage of radiolabelled AA converted to 5-HETE in each sample.
(§3) In the following tables, the superscripts indicate the number of experiments and, unless otherwise stated, the dose at which % inhibition is reported is 3 MPK.

[2] = molecular target: T2, RBL-1 Cell Cyclooxygenase (Rattus norvegicus, UniProt Q63921); assay: Procedure II: cyclooxygenase inhibition in disrupted RBL-1 cells (supernatant as enzyme source); assay type: biochemical; conditions: for IC50: read-out: IC50 CO (Procedure II)
T2 construct: the supernatant was saved as the source of enzymes; endogenous in cells; host or cells: RBL-1 (rat basophilic leukemia cells), 10,000×g supernatant of homogenate
T2 sequence (Q63921 27-602): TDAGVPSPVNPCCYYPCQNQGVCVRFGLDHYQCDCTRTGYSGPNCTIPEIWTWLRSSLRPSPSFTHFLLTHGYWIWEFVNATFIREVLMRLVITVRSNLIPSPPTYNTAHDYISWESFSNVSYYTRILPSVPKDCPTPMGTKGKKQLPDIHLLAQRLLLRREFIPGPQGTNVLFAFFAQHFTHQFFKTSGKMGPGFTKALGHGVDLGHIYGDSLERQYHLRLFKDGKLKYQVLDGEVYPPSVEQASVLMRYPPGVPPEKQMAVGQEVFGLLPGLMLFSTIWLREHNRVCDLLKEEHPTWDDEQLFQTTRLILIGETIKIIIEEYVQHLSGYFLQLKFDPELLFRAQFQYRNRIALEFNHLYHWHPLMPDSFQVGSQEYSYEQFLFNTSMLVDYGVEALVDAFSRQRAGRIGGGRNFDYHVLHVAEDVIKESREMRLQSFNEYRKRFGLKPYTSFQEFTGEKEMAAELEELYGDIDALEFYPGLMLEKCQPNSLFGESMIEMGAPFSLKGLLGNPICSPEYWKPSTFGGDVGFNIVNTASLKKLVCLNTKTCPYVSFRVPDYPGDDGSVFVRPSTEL
Protocol: as §1, §2, §3

CO in intact RBL-1 cells = molecular target: T3, CO in intact RBL-1 cells (Rattus norvegicus, UniProt Q63921); assay: Procedure III: inhibition of CO in intact RBL-1 cells; assay type: cell-based
T3 construct: 5-LO and CO in intact RBL-1 cells; endogenous in cells; host or cells: RBL-1 (rat basophilic leukemia cells), intact
T3 sequence (Q63921 27-602): T2 sequence (Q63921 27-602)
Protocol: The ability to inhibit 5-LO and CO in intact RBL-1 cells was also evaluated. RBL-1 cells were maintained in culture in minimal essential medium (Bio*Whittaker, Walkersville, Md.), containing 12.5% fetal calf serum, 10 mg/mL streptomycin, 10 I.U./mL penicillin G, […] gentamycin and 2 mM L-glutamine (Bio*Whittaker, Walkersville, Md.). Cells were collected by centrifugation, washed once in HBSS, and resuspended at a concentration of 1×10^5 cells/mL. Cells were incubated in the presence of vehicle or drug then centrifuged at 800×g for 10 minutes at 4° C. The supernatant was removed by aspiration and the cells were resuspended in 0.5 mL of HBSS. The reaction was started by the addition of 20 μg/mL of calcium ionophore A-23187 (mixed calcium and magnesium salts, Calbiochem, La Jolla, Calif.) and allowed to proceed for 15 minutes, then stopped by plunging the tubes into a slush ice bath. The conversion of AA to 5-LO products was initiated by the addition of 10 μL (50 uCi) of 1-^14 C-AA. Products were isolated by acidification and extraction, followed by thin layer chromatography analysis as described above. Radioactive areas corresponding to authentic 5-LO and CO products were quantitated by the Bioscan 2000 Imaging System.
as §3

Row | SMILES | % INHIBITION 5-LO (Procedure II) [1] [%] | IC50 [1] [nM] | % INHIBITION CO (Procedure II) [2] [%] | IC50 [2] [nM] | IC50 (CO in intact RBL-1 cells) [nM]
1 | COc1ccc(-n2nc(COC(=O)N(O)C(C)C)c(Cl)c2-c2ccc(C)cc2)cc1 [1-R] | 87 | 100 | 8 | 3800 | 4100
2 | COc1ccc(-n2nc(CCOC(=O)N(C)O)cc2-c2ccc(Cl)cc2)cc1 [2-A] | 82 | 60 | 44 | 1950 | 800
3 | COc1ccc(-n2nc(CCOC(=O)N(O)C(C)C)cc2-c2ccc(Cl)cc2)cc1 [2-B] | 84 | 100 | 55 | 500 | 180
4 | COc1ccc(-n2nc(CCOC(=O)N(C)O)c(Cl)c2-c2ccc(Cl)cc2)cc1 [2-C] | 69 | 470 | 41 | 2720 | 2700
5 | COc1ccc(-n2nc(CCOC(=O)N(O)C(C)C)c(Cl)c2-c2ccc(Cl)cc2)cc1 [2-D] | 70 | 70 | 1.5 | 250 | 1500
6 | COc1ccc(-n2nc(CCOC(=O)N(C)O)c(Br)c2-c2ccc(Cl)cc2)cc1 [2-E] | 72 | 190 | 5.5 | 2700 | 2200
7 | COc1ccc(-n2nc(CCOC(=O)N(O)C(C)C)c(Br)c2-c2ccc(Cl)cc2)cc1 [2-F] | 71 | 140 | 4 | 410 | 2400
8 | COc1ccc(-n2nc(CCOC(=O)N(C)O)cc2-c2ccc(C)cc2)cc1 [2-G] | 82 | 640 | 100 | 400 | 80
9 | COc1ccc(-n2nc(CCOC(=O)N(O)C(C)C)cc2-c2ccc(C)cc2)cc1 [2-H] | 83 | 60 | 100 | 40 | 40
10 | COc1ccc(-n2nc(CCOC(=O)N(C)O)c(Cl)c2-c2ccc(C)cc2)cc1 [2-I] | 78 | 100 | 52 | 2010 | 630
11 | COc1ccc(-n2nc(CCOC(=O)N(O)C(C)C)c(Cl)c2-c2ccc(C)cc2)cc1 [2-J] | 74 | 30 | 42 | 480 | 1100
12 | COc1ccc(-n2nc(CCOC(=O)NO)c(Br)c2-c2ccc(C)cc2)cc1 [2-K] | 59 | 680 | 35 | 410 | 3200
13 | COc1ccc(-n2nc(CCOC(=O)N(C)O)c(Br)c2-c2ccc(C)cc2)cc1 [2-L] | 75 | 90 | 39 | 830 | 1800
14 | COc1ccc(-n2nc(CCCOC(=O)NO)cc2-c2ccc(Cl)cc2)cc1 [3-A] | 83 | 3000 | 67 | 3000 | 4600
15 | COc1ccc(-n2nc(CCCOC(=O)N(C)O)cc2-c2ccc(Cl)cc2)cc1 [3-B] | 96 | 120 | 65 | 6340 | 420
16 | COc1ccc(-n2nc(CCCOC(=O)N(O)C(C)C)cc2-c2ccc(Cl)cc2)cc1 [3-C] | 80 | 30 | 72 | 1780 | 1230
17 | COc1ccc(-n2nc(CCCOC(=O)N(C)O)c(Cl)c2-c2ccc(Cl)cc2)cc1 [3-D] | 85 | 100 | 100 | 2250 | 2270
18 | COc1ccc(-n2nc(CCCOC(=O)N(O)C(C)C)c(Cl)c2-c2ccc(Cl)cc2)cc1 [3-E] | 86 | 70 | 52 | 17000 | 12200
19 | COc1ccc(-n2nc(CCCOC(=O)N(C)O)c(Br)c2-c2ccc(Cl)cc2)cc1 [3-F] | 88 | 60 | 100 | 6110 | 4920
20 | COc1ccc(-n2nc(CCCOC(=O)N(O)C(C)C)c(Br)c2-c2ccc(Cl)cc2)cc1 [3-G] | 80 | 30 | 0 | 3170 | 7000
